Here are results for 16 compounds from PMC3047706 (Chemmedchem, 2010).

The term IC50 denotes the midpoint of a concentration-inhibition curve. A low value points to inhibition by little substance. For orientation: inhibition means the relative decrease from the control value, in per cent. A word on the Ki: it is a measure of affinity in units of concentration, obtained from inhibition or displacement. Read a high Ki as a looser hold on the target.

Common to all, as to assay type: biochemical
Test [1] has as its target T1, T. cruzi TryR (Trypanosoma cruzi, UniProt P28593). The test is described as follows: DTNB-coupled TryR microplate assay, […] nm.
For test [2], the target named is T2, human GR (Homo sapiens, UniProt P00390).
T2 sequence (P00390 44-522): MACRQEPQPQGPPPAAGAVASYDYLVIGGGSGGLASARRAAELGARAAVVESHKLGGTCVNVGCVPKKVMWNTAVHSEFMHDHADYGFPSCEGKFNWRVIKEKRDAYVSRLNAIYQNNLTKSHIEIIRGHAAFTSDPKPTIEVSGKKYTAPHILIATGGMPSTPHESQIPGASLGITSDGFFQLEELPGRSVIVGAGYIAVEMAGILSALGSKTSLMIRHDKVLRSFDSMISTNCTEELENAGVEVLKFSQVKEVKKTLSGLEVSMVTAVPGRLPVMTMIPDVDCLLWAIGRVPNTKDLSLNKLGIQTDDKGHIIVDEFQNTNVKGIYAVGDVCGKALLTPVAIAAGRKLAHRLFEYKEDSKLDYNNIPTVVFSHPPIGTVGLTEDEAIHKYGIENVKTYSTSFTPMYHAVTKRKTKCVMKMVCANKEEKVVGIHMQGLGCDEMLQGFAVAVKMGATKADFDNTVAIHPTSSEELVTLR
The test is described as follows: DTNB-coupled GR microplate assay, single concentration in duplicate. The note with it: read-out: % inhibition at 25 μM.

The target of test [3] is T1, T. cruzi TryR. Put plainly: DTNB-coupled TryR assay, global fit of mode of inhibition.

Structures are written as SMILES. Where a name gives a salt, the structure may show the parent alone.

T1 sequence (P28593 whole entry): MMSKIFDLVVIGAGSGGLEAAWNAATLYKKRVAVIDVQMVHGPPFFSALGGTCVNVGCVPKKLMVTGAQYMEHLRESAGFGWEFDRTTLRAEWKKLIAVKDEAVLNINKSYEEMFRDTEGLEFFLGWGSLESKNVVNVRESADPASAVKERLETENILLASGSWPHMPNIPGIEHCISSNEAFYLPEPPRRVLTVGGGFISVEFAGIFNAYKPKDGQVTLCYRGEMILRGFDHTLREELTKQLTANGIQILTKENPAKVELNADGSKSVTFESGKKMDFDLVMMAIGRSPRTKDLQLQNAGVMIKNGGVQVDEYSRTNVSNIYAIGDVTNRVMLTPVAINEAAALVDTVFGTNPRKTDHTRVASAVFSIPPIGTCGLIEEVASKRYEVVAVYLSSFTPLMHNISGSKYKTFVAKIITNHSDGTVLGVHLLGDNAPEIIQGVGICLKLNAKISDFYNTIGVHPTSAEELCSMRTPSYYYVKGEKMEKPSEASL

`COc1ccc2c(c1)[C@H](NCCC(C)C)C[C@H]2c1ccc(Br)c(Br)c1` (relative stereo) [8xvii, Trans-[3-(3,4-dibromophenyl)-6-methoxyindan-1-yl]-(3-methylbutyl)amine] gave an IC50 in test [1] of 3.15 ± 0.23 µM. For the compound `Clc1ccc(CN[C@@H]2C[C@@H](c3ccc(Cl)c(Cl)c3)c3ccccc32)cc1Cl` (relative stereo) [8ix, Trans-[3-(3,4-dichlorophenyl)indan-1-yl]-(3,4-dichlorobenzyl)amine], in test [1], the IC50 worked out at 45.9 ± 4.2 µM.

In test [1], `CN(C)c1ccc(CN[C@@H]2C[C@@H](c3ccc(Cl)c(Cl)c3)c3ccccc32)cc1` (relative stereo) [8xii, Trans-[3-(3,4-dichlorophenyl)indan-1-yl]-(4-dimethylaminobenzyl)amine] yielded an IC50 of 7.38 ± 1.21 µM. Still for that read-out and setting: to `CC(=O)N[C@@H]1C[C@@H](c2ccc(Cl)c(Cl)c2)c2ccccc21` (relative stereo) [8xiv, Trans-N-[3-(3,4-dichlorophenyl)indan-1-yl]acetamide] belongs above 200 µM; to `COc1ccc2c(c1)[C@H](NCCC(C)C)C[C@H]2c1ccc(Cl)c(Cl)c1` (relative stereo) [8xvi, Trans-[3-(3,4-dichlorophenyl)-6-methoxyindan-1-yl]-(3-methylbutyl)amine], 2.23 ± 0.66 µM; to `COc1ccc2c(c1)[C@H](NCCC(C)C)C[C@H]2c1ccc(Cl)cc1` (relative stereo) [8xviii, Trans-[3-(4-chlorophenyl)-6-methoxyindan-1-yl]-(3-methylbutyl)amine], 15.8 ± 1.6 µM. In the case of `Cc1ccc(S(=O)(=O)N[C@@H]2C[C@@H](c3ccc(Cl)c(Cl)c3)c3ccccc32)cc1` (relative stereo) [8xv, Trans-N-[3-(3,4-dichlorophenyl)indan-1-yl]-4-methylbenzenesulfonamide], the IC50 in test [1] is above 200 µM. For the compound `CN[C@@H]1C[C@@H](c2ccc(Cl)c(Cl)c2)c2ccccc21` [compound 3, indatraline], in test [2], the inhibition at 25 µM is below 12%. With `Clc1ccc([C@@H]2C[C@@H](N3CCOCC3)c3ccccc32)cc1Cl` (relative stereo) [8vi, Trans-4-[3-(3,4-dichlorophenyl)indan-1-yl]morpholine], the IC50 in test [1] was 173 ± 56 µM.

In turn, `CC(C)CCN[C@@H]1C[C@@H](c2ccc(Cl)c(Cl)c2)c2ccccc21` (relative stereo) [8ii, Trans-[3-(3,4-dichlorophenyl)indan-1-yl]-(3-methylbutyl)amine hydrochloride] gave an inhibition constant (Ki) in test [3] of 3.5 ± 0.4 µM. In test [1], the IC50 worked out at 4.05 ± 0.39 µM.

For the compound `Clc1ccc(C2CC(NCc3ccccc3)c3ccccc32)cc1Cl` (centres unmarked) [8vii], the IC50 in test [1] is 8.04 ± 0.91 µM. Still for that read-out and setting: to `Cc1ccc(CN[C@@H]2C[C@@H](c3ccc(Cl)c(Cl)c3)c3ccccc32)cc1` (relative stereo) [8x, Trans-[3-(3,4-dichlorophenyl)indan-1-yl]-(4-methylbenzyl)amine] belongs 13 ± 1.6 µM; to `COc1cccc(C2CC(NCCC(C)C)c3cc(OC)ccc32)c1` (centres unmarked) [8xx], 125 ± 17 µM; to `COc1ccc2c(c1)[C@@H](NCc1ccccc1)C[C@@H]2c1ccc(Cl)c(Cl)c1` (relative stereo) [8xxi, Trans-benzyl-[3-(3,4-dichlorophenyl)-6-methoxyindan-1-yl]amine], 3.07 ± 0.45 µM. On the same count and under the same terms, for `COc1ccc2c(c1)[C@H](NCCC(C)C)C[C@H]2c1ccc(C)cc1` (relative stereo) [8xix, Trans-[3-(4-methylphenyl)-6-methoxyindan-1-yl]-(3-methylbutyl)amine] the value was 32.9 ± 4.3 µM. Still for that read-out and setting: for `COc1ccc(CN[C@@H]2C[C@@H](c3ccc(Cl)c(Cl)c3)c3ccccc32)cc1` (relative stereo) [8xi, Trans-[3-(3,4-dichlorophenyl)indan-1-yl]-(4-methoxybenzyl)amine] the value was 4.14 ± 0.41 µM.
